Assay results from ChEMBL document CHEMBL1201862, “PubChem BioAssay data set” (2004).
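Compound exposure: 48 hours, 5 concentrations, 96-well plates. At the GI50, growth is halved.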 Calls of active or inactive are those of the source. Cut-off read from the data, not from the text of the source: active = GI50 up to about 1.1 µM and inactive = higher.

Tests used:
Experiment in all cases: NCI anticancer screen, dose series, 48 h
[1] = tested on: CAKI-1
[2] = tested on: HOP-62
[3] = tested on: HT-29
[4] = tested on: NCI-H522
[5] = tested on: SF-268
[6] = tested on: DLD-1
[7] = tested on: A549
[8] = tested on: SK-MEL-2
[9] = tested on: HCC 2998
[10] = tested on: CCRF-CEM
[11] = tested on: U-251
[12] = tested on: EKVX
[13] = tested on: KM12
[14] = tested on: 786-0
[15] = tested on: NCI-H226
[16] = tested on: RXF 393
[17] = tested on: SNB-75
[18] = tested on: SR

| SMILES | GI50 [1] | GI50 [2] | GI50 [3] | GI50 [4] | GI50 [5] | GI50 [6] | GI50 [7] | GI50 [8] | GI50 [9] | GI50 [10] | GI50 [11] | GI50 [12] | GI50 [13] | GI50 [14] | GI50 [15] | GI50 [16] | GI50 [17] | GI50 [18] |
| --- | --- | --- | --- | --- | --- | --- | --- | --- | --- | --- | --- | --- | --- | --- | --- | --- | --- | --- |
| COc1ccc(/C=C2/C(=O)N(C(=O)c3ccc(Cl)cc3)N=C2C)cc1OC | > 100 µM (inactive) | > 100 µM (inactive) | > 100 µM (inactive) | > 100 µM (inactive) | > 100 µM (inactive) | > 100 µM (inactive) | > 100 µM (inactive) | > 100 µM (inactive) | > 100 µM (inactive) | > 100 µM (inactive) | > 100 µM (inactive) | > 100 µM (inactive) | > 100 µM (inactive) | > 100 µM (inactive) | – | – | – | – |
| COc1ccc(S(=O)(=O)N(C)CC(=O)O)cc1 | > 100 µM (inactive) | – | > 100 µM (inactive) | > 100 µM (inactive) | > 100 µM (inactive) | > 100 µM (inactive) | > 100 µM (inactive) | > 100 µM (inactive) | > 100 µM (inactive) | > 100 µM (inactive) | > 100 µM (inactive) | > 100 µM (inactive) | > 100 µM (inactive) | > 100 µM (inactive) | > 100 µM (inactive) | > 100 µM (inactive) | > 100 µM (inactive) | – |
| COc1ccc(/N=c2\ssc3c(=S)ssc23)cc1 | 91.4 µM (inactive) | > 100 µM (inactive) | – | 13.9 µM (inactive) | 35.7 µM (inactive) | 15.5 µM (inactive) | 31.1 µM (inactive) | 60 µM (inactive) | 37.2 µM (inactive) | 3.68 µM (inactive) | 28.4 µM (inactive) | – | 62.7 µM (inactive) | 34.1 µM (inactive) | > 100 µM (inactive) | 21.2 µM (inactive) | 19.4 µM (inactive) | 3.61 µM (inactive) |
| Cc1ccc(C(=O)/C=C/c2ccccc2O)c(C)c1 | > 100 µM (inactive) | > 100 µM (inactive) | 0.8 µM (active) | > 100 µM (inactive) | 93.3 µM (inactive) | > 100 µM (inactive) | > 100 µM (inactive) | > 100 µM (inactive) | > 100 µM (inactive) | 30.1 µM (inactive) | > 100 µM (inactive) | > 100 µM (inactive) | > 100 µM (inactive) | > 100 µM (inactive) | > 100 µM (inactive) | > 100 µM (inactive) | 1.24 µM (inactive) | – |
| O=C1Nc2ccccc2C1(O)C/C(=N/O)c1ccc2ccccc2c1 (centres undefined) | – | > 100 µM (inactive) | > 100 µM (inactive) | > 100 µM (inactive) | > 100 µM (inactive) | > 100 µM (inactive) | > 100 µM (inactive) | > 100 µM (inactive) | > 100 µM (inactive) | 47.2 µM (inactive) | 86.5 µM (inactive) | > 100 µM (inactive) | > 100 µM (inactive) | > 100 µM (inactive) | > 100 µM (inactive) | 58.9 µM (inactive) | 28.6 µM (inactive) | – |
| CN(c1ccccc1)C(c1ccccc1)C(O)c1ccccc1 (centres undefined) | 20.5 µM (inactive) | 20.4 µM (inactive) | 17.9 µM (inactive) | 20 µM (inactive) | 21.4 µM (inactive) | 23.9 µM (inactive) | 18.6 µM (inactive) | 16.7 µM (inactive) | 22.9 µM (inactive) | 26.7 µM (inactive) | 17.9 µM (inactive) | 25.1 µM (inactive) | 17.9 µM (inactive) | 18.2 µM (inactive) | – | – | 24.1 µM (inactive) | 20.6 µM (inactive) |
| c1ccc2c(c1)[Se]c1ccccc1[Se]2 | 67.1 µM (inactive) | > 100 µM (inactive) | > 100 µM (inactive) | > 100 µM (inactive) | > 100 µM (inactive) | 53.8 µM (inactive) | 53.6 µM (inactive) | > 100 µM (inactive) | – | 57.8 µM (inactive) | 37.5 µM (inactive) | – | > 100 µM (inactive) | > 100 µM (inactive) | 44.1 µM (inactive) | 61.8 µM (inactive) | 21.2 µM (inactive) | 85.3 µM (inactive) |
| Cc1cc(NC(=O)C2C3C=CC(O3)C2C(=O)O)no1 (centres undefined) | – | > 100 µM (inactive) | 34.6 µM (inactive) | > 100 µM (inactive) | 24.3 µM (inactive) | 24 µM (inactive) | 34.8 µM (inactive) | > 100 µM (inactive) | > 100 µM (inactive) | 19.1 µM (inactive) | 21.3 µM (inactive) | > 100 µM (inactive) | – | 17.4 µM (inactive) | > 100 µM (inactive) | 16.4 µM (inactive) | > 100 µM (inactive) | 21.8 µM (inactive) |
| Cc1ccc(S(=O)(=O)OC2CC=CC2)cc1 | > 100 µM (inactive) | > 100 µM (inactive) | > 100 µM (inactive) | – | – | > 100 µM (inactive) | > 100 µM (inactive) | > 100 µM (inactive) | > 100 µM (inactive) | > 100 µM (inactive) | > 100 µM (inactive) | > 100 µM (inactive) | > 100 µM (inactive) | > 100 µM (inactive) | > 100 µM (inactive) | > 100 µM (inactive) | > 100 µM (inactive) | – |
| CCOC(=O)C(C)(NC(=O)c1ccc(NCc2ccc3nc(NC(=O)c4ccccc4)nc(NC(=O)c4ccccc4)c3c2)cc1)C(=O)OCC | 8.02 µM (inactive) | 16.6 µM (inactive) | 13.3 µM (inactive) | 13.4 µM (inactive) | 8.99 µM (inactive) | 15.6 µM (inactive) | 12.2 µM (inactive) | 14.1 µM (inactive) | 25.8 µM (inactive) | – | 7.11 µM (inactive) | 19 µM (inactive) | – | 3.19 µM (inactive) | 10.1 µM (inactive) | 2.39 µM (inactive) | 3.4 µM (inactive) | 34.9 µM (inactive) |
| CC(C)c1cc2c(O)c(c1)Cc1cc(C(C)C)cc(c1O)Cc1cc(C(C)C)cc(c1O)Cc1cc(C(C)C)cc(c1O)C2 | > 100 µM (inactive) | > 100 µM (inactive) | > 100 µM (inactive) | > 100 µM (inactive) | > 100 µM (inactive) | > 100 µM (inactive) | > 100 µM (inactive) | > 100 µM (inactive) | – | > 100 µM (inactive) | > 100 µM (inactive) | > 100 µM (inactive) | > 100 µM (inactive) | > 100 µM (inactive) | > 100 µM (inactive) | > 100 µM (inactive) | > 100 µM (inactive) | > 100 µM (inactive) |
| CC(=O)NNc1nc(C)c(C(=O)NNC(=O)C(=O)Nc2c([N+](=O)[O-])ccc(C)c2C)s1 | > 100 µM (inactive) | > 100 µM (inactive) | > 100 µM (inactive) | 50.9 µM (inactive) | 90.6 µM (inactive) | > 100 µM (inactive) | > 100 µM (inactive) | > 100 µM (inactive) | > 100 µM (inactive) | 31 µM (inactive) | > 100 µM (inactive) | > 100 µM (inactive) | > 100 µM (inactive) | > 100 µM (inactive) | > 100 µM (inactive) | – | – | 92.3 µM (inactive) |
| CC(O)CN1C(=O)NC(Cc2ccccc2)C1=O (centres undefined) | > 100 µM (inactive) | 29.5 µM (inactive) | > 100 µM (inactive) | > 100 µM (inactive) | > 100 µM (inactive) | > 100 µM (inactive) | > 100 µM (inactive) | > 100 µM (inactive) | > 100 µM (inactive) | – | > 100 µM (inactive) | > 100 µM (inactive) | > 100 µM (inactive) | > 100 µM (inactive) | > 100 µM (inactive) | > 100 µM (inactive) | > 100 µM (inactive) | > 100 µM (inactive) |
| Cc1cc2c(c(C(N)=O)c1C)-c1ccccc1C2=O | – | > 100 µM (inactive) | > 100 µM (inactive) | > 100 µM (inactive) | > 100 µM (inactive) | > 100 µM (inactive) | > 100 µM (inactive) | > 100 µM (inactive) | > 100 µM (inactive) | > 100 µM (inactive) | > 100 µM (inactive) | > 100 µM (inactive) | 2.42 µM (inactive) | > 100 µM (inactive) | – | > 100 µM (inactive) | 83.2 µM (inactive) | – |
| COc1ccc(OCC(=O)O)c(C(=O)CCC(=O)O)c1 | – | > 10 µM (inactive) | > 100 µM (inactive) | > 100 µM (inactive) | > 100 µM (inactive) | > 100 µM (inactive) | > 100 µM (inactive) | > 100 µM (inactive) | > 100 µM (inactive) | > 100 µM (inactive) | > 100 µM (inactive) | > 100 µM (inactive) | > 100 µM (inactive) | > 100 µM (inactive) | 83.8 µM (inactive) | > 100 µM (inactive) | 71.8 µM (inactive) | > 100 µM (inactive) |
| COc1cccc(SSc2cccc(OC)c2C(=O)O)c1C(=O)O | > 100 µM (inactive) | > 100 µM (inactive) | > 100 µM (inactive) | > 100 µM (inactive) | > 100 µM (inactive) | > 100 µM (inactive) | > 100 µM (inactive) | > 100 µM (inactive) | – | > 100 µM (inactive) | > 100 µM (inactive) | > 100 µM (inactive) | > 100 µM (inactive) | > 100 µM (inactive) | > 100 µM (inactive) | > 100 µM (inactive) | > 100 µM (inactive) | > 100 µM (inactive) |
| NCCCC(N)(C(=O)O)C(F)F (centres undefined) [EFLORNITHINE] | 1570 µM (inactive) | > 5000 µM (inactive) | > 2790 µM (inactive) | > 5000 µM (inactive) | > 5000 µM (inactive) | > 3160 µM (inactive) | > 5000 µM (inactive) | > 5000 µM (inactive) | > 5000 µM (inactive) | > 1580 µM (inactive) | > 5000 µM (inactive) | – | > 5000 µM (inactive) | > 100 µM (inactive) | > 5000 µM (inactive) | > 5000 µM (inactive) | 2340 µM (inactive) | > 100 µM (inactive) |
